Experimental findings from PMC5222549 (Journal of immunology (Baltimore, Md. : 1950), 2016) are described below.

Assay [1] deals with GB1-mCRT(P), the P-domain of murine calreticulin (residues 187-283) fused with the B1 domain of protein G (mouse). Description: BLI.
For assay [2], the target named is T1, mCRT(WT) (Mus musculus, UniProt P14211).
T1 sequence (P14211 18-416): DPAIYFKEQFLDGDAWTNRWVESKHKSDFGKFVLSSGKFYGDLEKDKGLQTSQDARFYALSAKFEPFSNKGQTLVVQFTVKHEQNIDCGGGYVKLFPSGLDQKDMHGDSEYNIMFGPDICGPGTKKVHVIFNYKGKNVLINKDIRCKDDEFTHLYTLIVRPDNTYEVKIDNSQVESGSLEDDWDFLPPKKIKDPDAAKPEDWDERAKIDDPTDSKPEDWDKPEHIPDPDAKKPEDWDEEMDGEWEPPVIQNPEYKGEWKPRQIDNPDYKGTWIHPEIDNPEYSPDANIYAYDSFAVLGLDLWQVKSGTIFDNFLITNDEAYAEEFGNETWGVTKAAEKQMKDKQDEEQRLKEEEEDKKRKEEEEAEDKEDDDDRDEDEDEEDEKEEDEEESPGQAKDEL
Description: isothermal titration calorimetry, lipid vesicles titrated into […] protein. It is filed as binding. For orientation: In ITC the heat of successive injections is recorded.

Assay [3] deals with T2, mCRT(ΔP) (Mus musculus, UniProt P14211, DEL204-300).
T2 sequence (P14211 with tags, fused parts or gaps DEL204-300): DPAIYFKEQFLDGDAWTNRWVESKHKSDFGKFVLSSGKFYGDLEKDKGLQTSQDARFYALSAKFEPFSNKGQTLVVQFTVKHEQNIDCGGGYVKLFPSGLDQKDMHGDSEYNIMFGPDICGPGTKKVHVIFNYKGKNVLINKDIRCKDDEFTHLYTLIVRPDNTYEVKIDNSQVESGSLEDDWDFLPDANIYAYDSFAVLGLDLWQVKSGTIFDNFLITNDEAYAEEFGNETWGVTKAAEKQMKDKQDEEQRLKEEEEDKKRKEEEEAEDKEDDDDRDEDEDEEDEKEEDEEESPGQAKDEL
The description is as above. It is filed as binding.

Assay [4] concerns the target T3, mCRT(1-351 ΔP) (Mus musculus, UniProt P14211, DEL204-300).
T3 sequence (P14211 with tags, fused parts or gaps DEL204-300): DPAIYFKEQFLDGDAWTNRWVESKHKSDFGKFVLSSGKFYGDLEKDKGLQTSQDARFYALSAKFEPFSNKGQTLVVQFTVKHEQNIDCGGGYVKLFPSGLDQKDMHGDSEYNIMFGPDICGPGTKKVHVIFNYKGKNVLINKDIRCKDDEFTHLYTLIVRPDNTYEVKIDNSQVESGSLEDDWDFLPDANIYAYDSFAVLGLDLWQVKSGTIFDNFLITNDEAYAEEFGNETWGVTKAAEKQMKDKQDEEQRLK
Described as above. The class given is binding.

Assay [5] concerns the target T4, mCRT(1-351) (Mus musculus, UniProt P14211).
T4 sequence (P14211 18-368): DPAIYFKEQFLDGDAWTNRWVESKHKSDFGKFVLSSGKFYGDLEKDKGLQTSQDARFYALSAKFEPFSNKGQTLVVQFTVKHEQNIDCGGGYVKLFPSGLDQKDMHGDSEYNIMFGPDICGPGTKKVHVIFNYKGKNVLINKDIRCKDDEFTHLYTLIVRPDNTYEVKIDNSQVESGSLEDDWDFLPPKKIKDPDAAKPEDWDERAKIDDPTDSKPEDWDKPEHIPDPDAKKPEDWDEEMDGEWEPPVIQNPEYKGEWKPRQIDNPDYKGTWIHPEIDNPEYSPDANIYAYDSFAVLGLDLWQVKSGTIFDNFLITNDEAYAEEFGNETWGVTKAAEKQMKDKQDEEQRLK
Described as above. It is filed as binding.

The target in assay [6] is T5, GB1-mCRT(C) (Mus musculus, UniProt P14211).
T5 sequence (P14211 357-416): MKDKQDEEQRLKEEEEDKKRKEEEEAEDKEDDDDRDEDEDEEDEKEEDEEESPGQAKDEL
The assay is described as above. The class given is binding.

Assay [7] deals with T6, ERp57 (UniProt P30101 25-505).
T6 sequence (looked up): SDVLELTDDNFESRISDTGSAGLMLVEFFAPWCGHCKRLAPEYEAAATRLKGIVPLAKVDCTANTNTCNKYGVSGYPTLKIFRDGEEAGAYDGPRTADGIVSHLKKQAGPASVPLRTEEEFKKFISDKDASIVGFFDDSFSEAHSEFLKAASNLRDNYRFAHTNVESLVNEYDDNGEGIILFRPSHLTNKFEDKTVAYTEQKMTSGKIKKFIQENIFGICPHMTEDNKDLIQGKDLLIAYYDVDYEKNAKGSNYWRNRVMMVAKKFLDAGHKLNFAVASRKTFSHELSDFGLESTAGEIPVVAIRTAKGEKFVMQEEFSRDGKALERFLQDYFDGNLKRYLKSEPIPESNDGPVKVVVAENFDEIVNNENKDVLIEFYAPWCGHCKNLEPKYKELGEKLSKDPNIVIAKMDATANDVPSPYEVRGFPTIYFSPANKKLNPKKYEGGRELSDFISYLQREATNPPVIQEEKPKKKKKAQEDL
Description: BLI. (BLI is a label-free optical method that tracks binding on a fibre tip over time.)

As usually defined, the Kd is the equilibrium constant for the complex coming apart. A higher Kd goes with weaker binding. Consider “ERp57 (from UniProt P30101 25-505) (natural protein)”, for which, in assay [1], the Kd came to 0.101 µM.
With `CCCCCCCC/C=C\CCCCCCCC(=O)O[C@H](COC(=O)CCCCCCCCCCCCCCC)COP(=O)([O-])OCC[N+](C)(C)C` [POPC], the Kd in assay [2] was found to be 158 ± 37.3 µM; in assay [3] it was 92.5 ± 11 µM; in assay [4], 42.6 ± 11.5 µM; in assay [5] it was 53.4 ± 13.8 µM.
Turning to `CCCCCCCC/C=C\CCCCCCCC(=O)O[C@H](COC(=O)CCCCCCCCCCCCCCC)COP(=O)(O)OC[C@H](N)C(=O)O` [POPS], the Kd in assay [2] was 12.1 ± 4.49 µM; in assay [3], 7.5 ± 5.69 µM; in assay [4], 20.2 ± 4.08 µM; in assay [5], 32 ± 5.54 µM; in assay [6], 28.2 ± 4.3 µM.

B1: wild type murine calreticulin, mCRT(WT) (natural protein, mouse, UniProt P14211 18-416, looked up)
chain: T1 sequence (P14211 18-416)
In assay [7], B1 returned a Kd of 0.282 ± 0.038 µM.
